Entries after “also recorded” stand apart in the source; their conditions may differ.
Legend:
RBC from SCD subjects = assay: Anti-sickling of RBC from SCD subjects under hypoxia (blood smears); assay type: cell-based, human; details: for anti-sickling (average): 10 ug/ml blood
Procedure: (§1) Red Blood Cell (RBC) sickling were studied in blood samples obtained from 12 sickle cell subjects and 6 samples from healthy volunteers matched in terms of age and gender. The blood samples from the subjects were withdrawn and mixed into EDTA tube (10 ml), and then divided into 2 tubes 4-5 ml each (One containing S-NACH 10-100 ug/ml blood added at 10 ul/1 ml blood or PBS buffer solution).
(§2) Blood samples were incubated for 2-3 hours at room temperature and then blood smears were obtained for monitoring shape of RBCs (take photos for later quantitation number of normal vs. sickle RBCs). Then blood samples were centrifuged to get the plasma, and the plasma were frozen for further testing of various biomarkers.

[1] = system: RBC from healthy subjects; assay: Effect on morphology of RBC from healthy subjects; assay type: cell-based, human
Procedure: as §1, §2

[2] = Plasma tinzaparin level after oral administration to mice (colorimetric assay); assay type: in vivo; details: oral gavage, 1.6 mg/kg
Procedure: Nanoformulated LMWH as shown in Examples 1-5 were administered orally to mice versus standard LMWH at the same dose. Blood samples were withdrawn at different time and plasma levels of LMWH were measured using colorimetric assay.
FIG. 11 is a graph of plasma tinzaparin level versus time profiles in mice with formulations administered by oral gavage into the mice at dose of 1.6 mg/kg, in accordance with embodiments of the present invention. Graphs for Tinzaparin, and Chitosan NPs with positive charge and with negative charge are shown. Data are shown as mean±SD (n=4).

For “Sulfated Non-Anticoagulant Heparin [SNACH]”, the “anti-sickling (average)” value (RBC from SCD subjects; hypoxia 2-4 hours at 25 degree centigrade, SCD subject #5) was > 90%, the “anti-sickling (average)” value (RBC from SCD subjects; hypoxia 2-4 hours at 25 degree centigrade, SCD subjects) was > 90% and the “formation of irreversibly sickled cells” value (RBC from SCD subjects; 2-24 hours incubation under 95% N2/5% CO2, high concentration) was “significantly decreased”. The “effect on normal morphology of RBC” value [1] was “no effect; also recorded: without any effect”.

With OC[C@H]1O[C@@](CO)(O[C@H]2O[C@H](CO)[C@@H](O)[C@H](O)[C@H]2O)[C@@H](O)[C@@H]1O [sucrose, reference compound] the “effect on the average % of sickle RBC” value (RBC from SCD subjects; Patient #7, over 2-4 hours hypoxia at 25 degree centigrade) was “no significant effect” and the “effect on the sickling” value (RBC from SCD subjects; Patient #7 acute crisis, hypoxia 2-4 hours at 25 degree centigrade) was “no significant effect”.

In the case of Tinzaparin [standard tinzaparin], the “blood levels after oral administration” value [2] was “no detectable blood levels”.

From patent publication US9822190B2, “Compositions and method for anti-sickling of red blood cells in sickle cell disease” (priority 2015, dated 2017)
